Experimental data reported in paper PMC10539350 (Scientific Reports, 2023).
In brackets after ≈: the same amount, converted by molar mass. Like-named read-outs stand apart in the source and are kept apart here.

Key:
[1] = tested on: M. tuberculosis SIR Ciprofloxacin susceptible 168/22; experiment: tuberculostatic activity, broth microdilution MIC (Alamar blue); assay type: cell-based, Mycobacterium tuberculosis; details: for MIC: Mycobacterium tuberculosis, read-out: Minimal inhibitory concentration; for activity in words: susceptible bacteria
[2] = IAM-HPLC affinity to phospholipids (CHI protocol); assay type: physicochemical; details: for log kIAM: 0.045*CHIIAM+0.42; for CHIIAM: IAM column, pH 7.4, ACN gradient
M. tuberculosis H37Rv = experiment: tuberculostatic activity, broth microdilution MIC (Alamar blue); assay type: cell-based, Mycobacterium tuberculosis; details: for MIC: Mycobacterium tuberculosis, 504 h, M. tuberculosis H37Rv, read-out: Minimal inhibitory concentration; for activity in words: toward standard and susceptible strains
physchem = assay type: physicochemical; details: for CHIC18: C18 column, pH 7.4, ACN gradient; for chromatographic logD: pH 7.4
Source text: For HPLC analyses Prominence-1 LC-2030C 3D HPLC system (Shimadzu, Japan) equipped with a DAD detector and controlled by LabSolution system (version 5.90 Shimadzu, Japan) was used. Two different chromatography columns packed with surface-modified silica were utilized in this study: • Octyldecylsilane (C18 Hypersil GOLD™; 50 mm × 4.6 mm; 5.0 µm; Thermo Scientific, USA) • Immobilized artificial membrane (IAM.PC.DD2; 10 × 4.6 mm × 10.0 µm; Regis Technologies; USA).
Both columns were equipped with guard precolumn containing the same silica-modified bed as the main column. All measurements were carried out using the protocol proposed by Valko[19] and co-workers and adopted in our laboratory. Briefly, methods developed by Valko offered the determination of Chromatographic Hydrophobicity Index (CHI) indices using one gradient elution experiment. Ammonium acetate buffer (50 mM, pH 7.4) and acetonitrile (ACN) were used as the mobile phase at a 1.5 mL/min flow rate. The gradient range varies depending on the column type: • For C18 starting from 2 to 98% ACN in 5.25 min. The maximum concentration of ACN was applied for 1.75 min. • For IAM starting from 0 to 85% ACN in 5.25 min. The maximum concentration of ACN was used for 0.5 min.
During the chromatographic separation, the temperature was stable at 30 °C. […] The injected volume was 10 μL, whereas the concentration of solutes was at level 100 μg/mL. All studied compounds were dissolved in DMSO. Each chromatographic experiments run in triplicate. […] Retention times for studied molecules and reference standards are collected in supplementary materials, Tables S1, S2 and S3, respectively.
Next, the CHIC18 values were converted into lipophilicity indices CHI log D using Eq. […]

[3] = calibration set on the C18 column, literature CHI index, Table S2 ref 19; cited from earlier work
[4] = calibration set on the IAM column, CHI index, Table S3 ref 19; cited from earlier work
[5] = 21 days 37 °C, Middlebrook 7H9 + OADC

| SMILES | MIC [1] | log kIAM [2] | CHIIAM [2] | MIC (M. tuberculosis H37Rv; [5]) | CHIC18 (physchem) | chromatographic logD (physchem) | CHIC18 [3] | CHIIAM [4] | activity in words (M. tuberculosis H37Rv) | activity in words [1] | MIC (M. tuberculosis H37Rv; […]) |
| --- | --- | --- | --- | --- | --- | --- | --- | --- | --- | --- | --- |
| CC1CCC(C(C)C)C(OC(=O)CCCN2CCN(c3cc4c(cc3F)c(=O)c(C(=O)O)cn4C3CC3)CC2)C1 (stereo not shown) [Compound 4] | 0.5 µg/mL (≈ 0.9 µM) | 2.82 | 53.32 | 0.5 µg/mL | 132.45 | 5.49 | – | – | – | – | – |
| Cc1ccc(C(C)C)c(OC(=O)CCCCN2CCN(c3cc4c(cc3F)c(=O)c(C(=O)O)cn4C3CC3)CC2)c1 [Compound 13] | 2 µg/mL (≈ 3.55 µM) | 2.53 | 46.96 | 2 µg/mL | 117.28 | 4.69 | – | – | – | – | – |
| CCCCC(=O)c1ccccc1 [Valerophenone] | – | – | – | – | – | – | 96,2 | 37.3 | – | – | – |
| CCC(=O)c1ccccc1 [Propiophenone] | – | – | – | – | – | – | 77,5 | 25.9 | – | – | – |
| CC1CCC(C(C)C)C(OC(=O)CN2CCN(c3cc4c(cc3F)c(=O)c(C(=O)O)cn4C3CC3)CC2)C1 (stereo not shown) [Compound 2] | 2 µg/mL (≈ 3.79 µM) | 2.53 | 46.88 | 0.5 µg/mL | 127.44 | 5.22 | – | – | – | – | – |
| Cc1ccc(C(C)C)c(OC(=O)CCCN2CCN(c3cc4c(cc3F)c(=O)c(C(=O)O)cn4C3CC3)CC2)c1 [Compound 12] | 0.5 µg/mL (≈ 0.91 µM) | 2.48 | 45.75 | 0.5 µg/mL | 115.60 | 4.6 | – | – | – | – | – |
| Cc1ccc(C(C)C)c(OCC(=O)N2CCN(c3cc4c(cc3F)c(=O)c(C(=O)O)cn4C3CC3)CC2)c1 [Compound 9] | 256 µg/mL (≈ 491 µM) | 2.38 | 43.58 | 256 µg/mL | 129.41 | 5.33 | – | – | not active | – | – |
| CC1CCC(C(C)C)C(OC(=O)CCN2CCN(c3cc4c(cc3F)c(=O)c(C(=O)O)cn4C3CC3)CC2)C1 (stereo not shown) [Compound 3] | 2 µg/mL (≈ 3.69 µM) | 2.65 | 49.56 | 2 µg/mL | 129.99 | 5.36 | – | – | – | – | – |
| CC1CCC(C(C)C)C(OC(=O)CCCCCOC(=O)c2cn(C3CC3)c3cc(N4CCN(CCCCCC(=O)OC5CC(C)CCC5C(C)C)CC4)c(F)cc3c2=O)C1 (stereo not shown) [Compound 8] | 4 µg/mL (≈ 4.78 µM) | 3.02 | 57.85 | 4 µg/mL | 179.66 | 7.97 | – | – | – | – | – |
| CC(=O)Nc1ccccc1 [Acetanilidine] | – | – | – | – | – | – | – | 11.5 | – | – | – |
| CCCCCCC(=O)c1ccccc1 [Heptanophenone] | – | – | – | – | – | – | – | 45.7 | – | – | – |
| Cc1ccc(C(C)C)c(OC(=O)CCN2CCN(c3cc4c(cc3F)c(=O)c(C(=O)O)cn4C3CC3)CC2)c1 [Compound 11] | 1 µg/mL (≈ 1.87 µM) | 2.42 | 44.44 | 1 µg/mL | 113.95 | 4.52 | – | – | – | – | – |
| Cc1ccc(C(C)C)c(OC(=O)CCCCCN2CCN(c3cc4c(cc3F)c(=O)c(C(=O)O)cn4C3CC3)CC2)c1 [Compound 14] | 0.5 µg/mL (≈ 0.866 µM) | 2.68 | 50.29 | 0.5 µg/mL | 121.48 | 4.91 | – | – | – | – | – |
| CCCC(=O)c1ccccc1 [Butyrophenone] | – | – | – | – | – | – | 87,5 | 32 | – | – | – |
| CC(=O)c1ccccc1 [Acetophenone] | – | – | – | – | – | – | 65,1 | 17.2 | – | – | – |
| CO[C@H]1/C=C/O[C@@]2(C)Oc3c(C)c(O)c4c(O)c(c(/C=N/N5CCN(C)CC5)c(O)c4c3C2=O)NC(=O)/C(C)=C\C=C\[C@H](C)[C@H](O)[C@@H](C)[C@@H](O)[C@@H](C)[C@H](OC(C)=O)[C@@H]1C [Rifampicin, reference compound] | 64 µg/mL (≈ 77.8 µM) | – | – | 0.5 µg/mL | – | – | – | – | – | poor activity | – |
| [H]/N=C(/N)N[C@H]1[C@H](O)[C@@H](O)[C@H](O[C@@H]2O[C@@H](C)[C@](O)(C=O)[C@H]2O[C@@H]2O[C@@H](CO)[C@H](O)[C@@H](O)[C@@H]2NC)[C@@H](N/C(N)=N\[H])[C@@H]1O [Streptomycin, reference compound] | 64 µg/mL (≈ 110 µM) | – | – | 0.25 µg/mL | – | – | – | – | – | poor activity | – |
| Cc1ccc(C(C)C)c(OC(=O)CN2CCN(c3cc4c(cc3F)c(=O)c(C(=O)O)cn4C3CC3)CC2)c1 [Compound 10] | 1 µg/mL (≈ 1.92 µM) | – | 42.88 | 1 µg/mL | 111.26 | 4.37 | – | – | – | – | – |
| NNC(=O)c1ccncc1 [Isoniazid, reference compound] | 0.5 µg/mL (≈ 3.65 µM) | – | – | 0.0625 µg/mL | – | – | – | – | – | – | – |
| Cn1c(=O)c2[nH]cnc2n(C)c1=O [Theophylline] | – | – | – | – | – | – | 18,4 | – | – | – | – |
| CC1CCC(C(C)C)C(OC(=O)CCCCN2CCN(c3cc4c(cc3F)c(=O)c(C(=O)O)cn4C3CC3)CC2)C1 (stereo not shown) [Compound 5] | 4 µg/mL (≈ 7.02 µM) | 2.62 | 48.95 | 4 µg/mL | 134.85 | 5.61 | – | – | – | – | – |
| CC[C@@H](CO)NCCN[C@@H](CC)CO [Ethambutol, reference compound] | 0.5 µg/mL (≈ 2.45 µM) | – | – | 0.25 µg/mL | – | – | – | – | – | – | – |
| CCCCCCCC(=O)c1ccccc1 [Octanophenone] | – | – | – | – | – | – | – | 49.4 | – | – | – |
| CC(=O)Nc1ccc(O)cc1 [Paracetamol] | – | – | – | – | – | – | – | 2.9 | – | – | – |
| Cc1ccc(C(C)C)c(OC(=O)CCCCCOC(=O)c2cn(C3CC3)c3cc(N4CCN(CCCCCC(=O)Oc5cc(C)ccc5C(C)C)CC4)c(F)cc3c2=O)c1 [Compound 16] | 4 µg/mL (≈ 4.85 µM) | 2.64 | 49.33 | 4 µg/mL | 144.84 | 6.14 | – | – | – | – | – |
| CC1CCC(C(C)C)C(OCC(=O)N2CCN(c3cc4c(cc3F)c(=O)c(C(=O)O)cn4C3CC3)CC2)C1 (stereo not shown) [Compound 1] | 256 µg/mL (≈ 485 µM) | 2.47 | 45.54 | 32 µg/mL | 112.24 | 4.43 | – | – | not active | – | – |
| Cc1ccc(C(C)C)c(OC(=O)CCCOC(=O)c2cn(C3CC3)c3cc(N4CCN(CCCC(=O)Oc5cc(C)ccc5C(C)C)CC4)c(F)cc3c2=O)c1 [Compound 15] | 64 µg/mL (≈ 83.3 µM) | 2.47 | 45.54 | 64 µg/mL | 135.98 | 5.67 | – | – | not active | – | – |
| c1ccc2[nH]cnc2c1 [Benzimidazole] | – | – | – | – | – | – | 34,3 | – | – | – | – |
| CCCCCC(=O)c1ccccc1 [Hexanophenone] | – | – | – | – | – | – | – | 41.8 | – | – | – |
| CC1CCC(C(C)C)C(OC(=O)CCCCOC(=O)c2cn(C3CC3)c3cc(N4CCN(CCCCC(=O)OC5CC(C)CCC5C(C)C)CC4)c(F)cc3c2=O)C1 (stereo not shown) [Compound 7] | 256 µg/mL (≈ 317 µM) | 2.92 | 55.54 | – | 170.54 | 7.49 | – | – | not active | – | 256 µg/mL (≈ 317 µM) |
